From patent publication US11236060B2, “Method for producing solid dispersion containing nobiletin” (KAO CORPORATION, priority 2018, dated 2022)

Assay: Solubility in 25° C. water of the poorly water-soluble substance
Type: physicochemical
Conditions: poorly water-soluble substance itself (ingredient)

Q: Which “Solubility in 25° C. water” value does the source give for `O=c1oc2c(O)c(O)cc3c(=O)oc4c(O)c(O)cc1c4c23` [Ellagic acid, ellagic acid] here?
A: 4 ppm

Q: For `COc1ccc(-c2cc(=O)c3c(OC)c(OC)c(OC)c(OC)c3o2)cc1OC` [Nobiletin, 3′,4′,5,6,7,8-hexamethoxyflavone], which “Solubility in 25° C. water” value is on record?
A: 1 ppm
